# According to paper PMC10574094, “Discovery of a SHP2 Degrader with In Vivo Anti-Tumor Activity” (Molecules, 2023):
# Columns and labels:
# ERK1/2, AKT, β-Actin = assay: Western blot of other signaling proteins in HEK293 cells; type: cell-based, human; conditions: 1 μM P9, 16 h
# Method: (§1) HEK293, SKBR3, U2OS, MCF7 and A549 cells were grown in DMEM supplemented with 10% FBS, penicillin (50 units/mL), and streptomycin (50 μg/mL) in a 37 °C incubator containing 5% CO2. KYSE-520 and H358 cells were grown in RPMI-1640 supplemented with 10% FBS, penicillin (50 units/mL), and streptomycin (50 μg/mL) in a 37 °C incubator containing 5% CO2. For western-blot analysis, protein samples were separated by SDS-PAGE, transferred to nitrocellulose membranes, and incubated overnight at 4 °C with corresponding primary antibodies diluted in 5% BSA in phosphate-buffered saline Tween (PBST). SuperSignal™ West Pico PLUS (PI34580; Thermo Scientific) was used to visualize the antibodies in the bioanalytical imaging system (Azure Biosystems c500). Anti-p-ERK1/2 (T202/Y204) (4370), and anti-ERK1/2 (4696) were purchased from Cell Signaling Technology. Anti-GAPDH (sc-365062), anti-SHP2 (sc-7384), anti-SHP1 (sc-7289), and anti-Actin (sc-8432) antibodies were purchased from Santa Cruz. Anti-PTP1B (ab244207) antibody was purchased from Abcam. For colony formation assay, a total of approximately 200–500 cells were seeded to each well in a 12-well plate. The wells were then treated with DMSO, compound P9 and 3 at 37 °C for 3 weeks, gently washed, and stained with crystal violet.
# pERK1/2 = pERK1/2 level in KYSE-520 tumor homogenates (Western blot); type: in vivo, mice; conditions: whole tumor homogenates, 50 mg/kg P9 IP
# Method: as §1, with “For colony formation assay, a total of approximately 200–500 cells were seeded to each well in a 12-well plate. The wells were then treated with DMSO, compound P9 and 3 at 37 °C for 3 weeks, gently washed, and stained with crystal violet.” left out
# (§2) For the xenograft tumor study, KYSE-520 cells were suspended in PBS and a total of 3 × 10^6 cells (100 μL) were subcutaneously implanted into both the left and right flank using a 27-gauge needle. Tumor volume was calculated using the formula V = (W^2 × L)/2 for caliper measurements. […]
# SHP2 [1] = target: T1, SHP2 (Homo sapiens, UniProt Q06124); assay: SHP2 degradation by Western blotting in KYSE-520 cells; type: cell-based; parameters: endogenous in cells; host or cells: KYSE-520; conditions: 16 h
# T1 sequence (Q06124 1-593): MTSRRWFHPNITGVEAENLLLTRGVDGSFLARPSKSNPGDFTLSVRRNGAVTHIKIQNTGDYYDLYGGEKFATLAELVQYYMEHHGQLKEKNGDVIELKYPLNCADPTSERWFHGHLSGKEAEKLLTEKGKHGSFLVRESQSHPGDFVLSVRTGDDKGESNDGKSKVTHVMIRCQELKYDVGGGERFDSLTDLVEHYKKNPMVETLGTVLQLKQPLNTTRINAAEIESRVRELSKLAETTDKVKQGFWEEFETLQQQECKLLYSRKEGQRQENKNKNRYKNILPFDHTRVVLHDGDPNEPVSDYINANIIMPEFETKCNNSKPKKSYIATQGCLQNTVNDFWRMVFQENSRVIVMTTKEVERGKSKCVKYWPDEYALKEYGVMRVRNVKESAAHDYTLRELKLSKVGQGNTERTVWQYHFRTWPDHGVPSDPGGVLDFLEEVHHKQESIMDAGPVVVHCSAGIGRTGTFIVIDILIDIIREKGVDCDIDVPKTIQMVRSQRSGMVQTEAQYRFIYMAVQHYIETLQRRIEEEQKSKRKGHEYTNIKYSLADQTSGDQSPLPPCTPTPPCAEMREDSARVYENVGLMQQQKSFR
# Method: as §1
# other PTPs = assay: PTP inhibition assay, panel of representative PTP family members; type: biochemical; conditions: up to 10 µM P9 concentration
# Method: PTP activity was assayed using p-nitrophenyl phosphate (pNPP) as a substrate in DMG buffer (50 mM DMG, pH 7.0, 1 mM EDTA, 150 mM NaCl, 2 mM DTT, 0.1 mg/mL BSA) at 25 °C. The assays were performed in 96-well plates. To determine the IC50 values, the reaction was initiated by the addition of enzyme (final concentration = 10 nM) to a reaction mixture (0.2 mL) containing pNPP (at a final concentration close to the Kms of tested enzymes, in specific: 0.05 mM for CDC-14A; 0.5 mM for FAP-1; 2 mM for TC-PTP, PTP1B, STEP, LWM-PTP, and PTPα; 3 mM for SHP1; 4 mM for Laforin; 5 mM for LYP, CD45, and VHR; 6 mM for PTP-MEG2 and HePTP) with various concentrations of inhibitors. The reaction rate was measured using a SpectraMax Plus 384 Microplate Spectrophotometer (Molecular Devices, San Jose, CA, USA). Data were fitted using the SigmaPlot Enzyme Kinetics Module (Systat Software, Inc., San Jose, CA, USA).
# SHP2 [2] = target: T1, SHP2; assay: SHP2 degradation by Western blotting in HEK293 cells; type: cell-based; parameters: endogenous in cells; host or cells: HEK293; conditions: HEK293 cells
# SHP2 [3] = target: T1, SHP2; assay: SHP2 level in KYSE-520 tumor homogenates (Western blot); type: in vivo, mice; parameters: from tissue; host or cells: KYSE-520 xenograft tumour from nude mice, whole tumour homogenate; conditions: whole tumor homogenates, 50 mg/kg P9 IP
# Method: as §1, with “For colony formation assay, a total of approximately 200–500 cells were seeded to each well in a 12-well plate. The wells were then treated with DMSO, compound P9 and 3 at 37 °C for 3 weeks, gently washed, and stained with crystal violet.” left out
# as §2
smiles,measurement,setting,value
"Cc1ncsc1-c1ccc([C@H](C)NC(=O)[C@@H]2C[C@@H](O)CN2C(=O)[C@@H](NC(=O)CCCCCCCCCN2CCN(C(=O)CCCCCC3(CN)CCN(c4cnc(Sc5cccc(Cl)c5Cl)c(N)n4)CC3)CC2)C(C)(C)C)cc1 [P9, (2S,4R)-1-((S)-2-(10-(4-(6-(1-(6-amino-5-((2,3-dichlorophenyl)thio)pyrazin-2-yl)-4-(aminomethyl)piperidin-4-yl)hexanoyl)piperazin-1-yl)decanamido)-3,3-dimethylbutanoyl)-4-hydroxy-N-((S)-1-(4-(4-methylthiazol-5-yl)phenyl)ethyl)pyrrolidine-2-carboxamide]",degradation of other signaling proteins,"ERK1/2, AKT, β-Actin",did not induce any appreciable degradation
same,"pERK1/2 level, % of the control group",pERK1/2,24 ± 12%
same,DC50,SHP2 [1],~130 nM
same,inhibition towards other PTPs,other PTPs,no significant inhibition
same,time at which maximal SHP2 depletion was achieved,SHP2 [2],16 h
same,DC50,"SHP2 [2]; 16 h of treatment, read-out: DC50 (concentration required for 50% degradation of protein)",35.2 ± 1.5 nM
same,hook effect,SHP2 [2]; tested concentration range,no significant hook effect
same,SHP2 protein degraded,SHP2 [2]; within 6 h of P9 treatment,Over 90%
same,"SHP2 level, % of the control group",SHP2 [3],34 ± 18%
